What was measured:
[1] = Cytotoxicity against mouse RAW264.7 cells assessed as cell viability at 50 uM after 22 hrs by MTT assay relative to control; assay type: cell-based; settings: read-out: Activity
[2] = tested on: RAW264.7; assay: Antiinflammatory activity in mouse RAW264.7 cells assessed as inhibition of LPS-induced nitrite production at 50 uM after 22 hrs by Griess method relative to LPS-treated control; assay type: functional; settings: RAW264.7, 22 h
[3] = tested on: RAW264.7; assay: Antiinflammatory activity in mouse RAW264.7 cells assessed as inhibition of LPS-induced nitrite production after 22 hrs by Griess method; assay type: functional, cell-based; settings: RAW264.7, 22 h

| IC50 [3] [µM] | Structure (SMILES) | viability at 22 h, 50 µM [1] [%] | inhibition at 50 µM [2] [%] |
| --- | --- | --- | --- |
|  | c1ccc(C(c2ccc[nH]2)c2ccc[nH]2)cc1 | 100 | 2.1 |
|  | O=[N+]([O-])c1ccc(C(c2ccc[nH]2)c2ccc[nH]2)cc1 | 95.8 | 26.9 |
|  | CCC(c1ccc(C)o1)c1ccc(C)o1 | 101 | 30.9 |
| 42.4 | Cc1ccc(C(c2ccc([N+](=O)[O-])cc2)c2ccc(C)o2)o1 | 96.3 | 73.2 |
|  | Cc1ccc(C(c2ccc(Br)cc2)c2ccc(C)o2)o1 | 101 | 24.9 |
| 41.1 | CCc1ccc(C(c2ccc([N+](=O)[O-])cc2)c2ccc(CC)o2)o1 | 101 | 63.3 |
|  | CCCCC(c1ccc(C)o1)c1ccc(C)o1 | 100 | 31.7 |
| 56.9 | CCc1ccc(C(c2ccc([N+](=O)[O-])cc2)c2ccc(CC)[nH]2)[nH]1 | 99.2 | 50.7 |
| 44 | COc1cc(C(c2ccc(C)o2)c2ccc(C)o2)ccc1O | 98.2 | 63.7 |
|  | Cc1ccc(C(c2ccccc2)c2ccc(C)o2)o1 | 99.3 | 33.4 |
| 60.8 | Cc1ccc(C(CCc2ccccc2)c2ccc(C)o2)o1 | 100 | 46.8 |
|  | Cc1ccc(C(CCc2ccccc2)c2ccc(C)s2)s1 | 103 | 21.5 |
| 74.2 | CCc1ccc(C(CCc2ccccc2)c2ccc(CC)o2)o1 | 101 | 39.4 |
|  | CCC(CC)C(c1ccc(C)o1)c1ccc(C)o1 | 101 | 26.6 |
|  | COc1ccc(C(c2ccc(C)o2)c2ccc(C)o2)cc1 | 97.8 | 34.6 |
|  | Cc1ccc(C(c2ccc(C)o2)C2CCCCC2)o1 | 102 | 36.9 |
| 44.8 | Cc1ccc(C(c2ccc(F)cc2)c2ccc(C)o2)o1 | 97.8 | 64.2 |
|  | Cc1ccc(C(CC(C)C)c2ccc(C)o2)o1 | 101 | 21.4 |
| 50.7 | Cc1ccc(C(c2ccc(Cl)cc2)c2ccc(C)o2)o1 | 101 | 39.5 |
| 70.5 | CCc1ccc(C(c2ccccc2)c2ccc(CC)o2)o1 | 101 | 41.5 |

| Structure (SMILES) | IC50 [3] [µM] | viability at 22 h, 50 µM [1] [%] | inhibition at 50 µM [2] [%] |
| --- | --- | --- | --- |
| N=C(N)NN [PIMAGEDINE] | 43.3 | 100 | 70.2 |

From ChEMBL document CHEMBL3286268, “Green synthesis and anti-inflammatory studies of a series of 1,1-bis(heteroaryl)alkane derivatives” (Eur J Med Chem, 2014)
